# Legend:
# pAkt-Ser473 and CPT-1A = experiment: Immunoblotting of gastrocnemius muscle lysates of DIO mice; type: in vivo, C57BL/6J mice
# Experimental: For all cell culture experiments, after drug treatments cells were washed with chilled phosphate-buffered saline (PBS), and lysed in chilled lysis buffer with 1× protease inhibitor cocktail (Sigma). RIPA lysis buffer (Sigma-Aldrich) was used for INS-1 (832/13) cells and muscle lysis buffer for C2C12 myotubes (20 mM HEPES, 10 mM NaCl, 1.5 mM MgCl2, 1 mM DTT, 20% glycerol, and 0.1% Triton-X100). Cells were scraped, mechanically homogenized using a syringe and centrifuged at 14,000×g for 20 min at 4° C. and the supernatants were collected. For preparation of all gastrocnemius muscle lysates, 10 mg frozen tissue (wet weight) was washed in chilled PBS, placed in a dounce homogenizer, lysed in muscle lysis buffer and centrifuged at 14,000×g for 20 min at 4° C. and the supernatant was collected. Protein content for cell and tissue lysates was measured using the BCA protein assay kit (ThermoFisher) according to manufacturer's protocol. Thirty μg protein lysates were prepared in loading buffer and immunoblotting was performed by heating lysates for 5 minutes at 95° C. and subjecting them to gel electrophoresis on 10% SDS-polyacrylamide gels at 150 V for 75 minutes. Using a semi-dry transfer apparatus (Bio-Rad) the gels were then transferred at 25V for 45 minutes to a PVDF membrane and blocked with 5% BSA (Sigma) in tris-buffered saline-tween (TBS-T) for 1 hour. […]
# C2C12 myotubes [1] = experiment: Glucose oxidation and 2-NBDG glucose uptake in C2C12 myotubes; type: cell-based, mouse
# Experimental: C2C12 myotubes and INS-1 (832/13) cells treated as in the FAO assays described above and then incubated with D-[^14C(U)]-glucose (0.58 μC/mL) and unlabeled glucose (final glucose concentration 200 μM) for 4 h subsequent to which [^14C]—CO2 (representing complete glucose oxidation) and ASMs (representing incomplete glucose oxidation) were captured and quantified as described in the FAO method. For C2C12 myotubes, glucose oxidation and uptake was measured with and without a 30 min pre-incubation with 100 nM insulin to determine basal and insulin-mediated glucose oxidation or uptake, respectively.
# To measure glucose uptake in C2C12 myotubes, a fluorescent D-glucose analog 2-(N-[7-nitrobenz-2-oxa-1,3-diazol-4-yl]amino)-2-deoxy-D-glucose (2-NBDG) was utilized. Briefly, myotubes were treated for 24 h with test compound after which they were washed twice with PBS and starved for 1 h in serum and glucose free DMEM. Following starvation, 100 nM insulin was added for 30 min after which 60 μM 2-NBDG was added to each well and allowed to incubate for 30 min. The 2-NBDG uptake reaction was then stopped by removing the incubation medium and washing the cells twice with PBS after which the cells were trypsinized and collected for flow cytometry analysis (Guava 8HT; EMD Millipore, Billerica, MA).
# INS-1 (832/13) cells = experiment: Mitochondrial ROS (MitoSOX) and membrane potential (JC-1) in INS-1 (832/13) cells; type: cell-based, rat; conditions: 25 μM AvoB, 0.5 mM palmitate, 24 h
# Experimental: (§1) For all ROS studies, INS-1 (832/13) cells and C2C12 myotubes were treated with or without palmitate and FAO inhibitors for 24 h in low glucose cell culture media as described for the FAO assay. After treatment, cells were trypsinized and re-suspended in PBS containing 5 μM of the fluorescent dye MitoSOX® (Molecular Probes, Invitrogen) and allowed to incubate for 5-15 minutes in a humidified atmosphere containing 5% CO2 at 37° C. Cells were then washed in PBS, placed in a 96 well plate and fluorescence was measured by flow cytometry. ROS was quantified by normalizing the mean fluorescence values of live gated cells to vehicle control. Mitochondrial membrane potential (MMP) in INS-1 (832/13) and C2C12 myotubes was measured using the cationic fluorescent dye JC-1 (Molecular Probes). […] JC-1 fluoresces green in the cytosol where it exists as a monomer, after entering the mitochondria JC-1 monomers form J aggregates and fluoresce red, thus the red/green fluorescence ratio is used to determine MMP. […] Cells were then washed in PBS, placed in a 96 well plate and fluorescence was measured by flow cytometry. MMP was quantified by normalizing the mean fluorescence values of live gated cells to vehicle control. […] Cells were treated, washed and collected as described and incubated with 0.35 μM NAO and green fluorescence was measured using flow cytometry. […]
# C2C12 myotubes [2] = experiment: Mitochondrial ROS (MitoSOX) and membrane potential (JC-1) in C2C12 myotubes; type: cell-based, mouse; conditions: 25 μM AvoB, 0.5 mM palmitate, 24 h
# Experimental: as §1
substance,measurement,setting,value
avocatin B [AvoB],Phosphorylation of AKT Ser473 in gastrocnemius muscle,pAkt-Ser473 and CPT-1A; AvoB-treated-HFD mice vs HFD-control mice,increased phosphorylation of AKTSer473
same,CPT-1A protein level in gastrocnemius muscle,pAkt-Ser473 and CPT-1A; HFD-control mice compared to AVO-treated-HFD mice,higher protein levels of CPT-1A in gastrocnemius muscle compared to AVO-treated-HFD mice
same,Insulin stimulated glucose uptake (2-NDBG),"C2C12 myotubes [1]; 25 μM AVO, 0.5 mM palmitate 24 h, vs palmitate only",increased glucose uptake compared to palmitate only treated cells
same,Basal and insulin stimulated glucose oxidation (D-[14C(U)]-glucose to CO2),"C2C12 myotubes [1]; 25 μM AvoB, excess palmitate, 24 h",increased basal and insulin stimulated glucose oxidation
same,"Mitochondrial membrane potential (MMP, JC-1)",INS-1 (832/13) cells,lowers palmitate-induced increases
same,Mitochondrial superoxide levels (MitoSOX Red),INS-1 (832/13) cells,lowers palmitate-induced increases in mitochondrial superoxide levels
same,"Mitochondrial membrane potential (MMP, JC-1)",C2C12 myotubes [2],lowers palmitate induced increases
same,Mitochondrial superoxide levels (MitoSOX Red),C2C12 myotubes [2],lowers palmitate induced increases in mitochondrial superoxide levels

# Reference: patent US12390423B2 (priority 2019, dated 2025)
